In patent publication US20230271954A1 (Gossamer Bio Services, Inc., priority 2020, published 2023):

What was measured:
DGKζ = biological target: T1, DGKζ (Homo sapiens, UniProt Q13574); test: DGKζ biochemical assay (ADP-Glo); conditions: read-out: DGK ζ IC50
T1 construct: purchased Carna 12-110
Method: (§1) Compounds of the present invention were prepared into 10 mM DMSO solution and 10 nL of stock was transferred into 384 plates (Optiplate 384 plate) using Echo550. DMSO was used as high control, and ATP substrate buffer was used as a low control. A 1× enzyme assay buffer was prepared (Hepes, pH 7.0 25 mM, BSA 0.05%, Triton-X100 0.002%, CaCl2) 1 μM, MgCl2 10 mM, DTT 2 mM). […] OAG (1-oleoyl-2-acetyl-sn-glycerol, 25 mg/ml, Avanti 8001000) and PS (10 mg/ml, Avanti 840032P) were mixed at the ratio of 1:2. A 1× substrate solution was prepared with 1× assay buffer by 100-fold dilution. The substrate solution was sonicated on ice for 1 min. The pure ATP was added to the substrate solution (DGKα:400 μM). 5 μL of the enzyme solution were added to the 384 well plate, and the plate was spun for 1 min at 1000 rpm and incubated for 30 mins at RT. 5 μL of 1× substrate solution were added to the 384 well plate, the plate was spun and then incubated for 45 mins at RT. 10 μL ADP-Glo […] was added to stop the assay. After 60 mins at RT, 20 μL ADP-Glo Detection buffer was added as the final step. Plate was read after 45 min incubation at RT.
(§2) Data analysis was performed by calculating the […] using following the formula:
(§3) [formula] • High control (Hc): DMSO/DGKα(DGKζ)/Substrate/ATP/ADP-Glo • Low Control (Lc): ATP/ADP-Glo

DGKα = DGKα (Homo sapiens, UniProt P23743); test: DGKα biochemical assay (ADP-Glo); conditions: read-out: DGK α IC50
Method: as §1, §2, §3

T1 sequence (Q13574 1-929 isoform Q13574-4): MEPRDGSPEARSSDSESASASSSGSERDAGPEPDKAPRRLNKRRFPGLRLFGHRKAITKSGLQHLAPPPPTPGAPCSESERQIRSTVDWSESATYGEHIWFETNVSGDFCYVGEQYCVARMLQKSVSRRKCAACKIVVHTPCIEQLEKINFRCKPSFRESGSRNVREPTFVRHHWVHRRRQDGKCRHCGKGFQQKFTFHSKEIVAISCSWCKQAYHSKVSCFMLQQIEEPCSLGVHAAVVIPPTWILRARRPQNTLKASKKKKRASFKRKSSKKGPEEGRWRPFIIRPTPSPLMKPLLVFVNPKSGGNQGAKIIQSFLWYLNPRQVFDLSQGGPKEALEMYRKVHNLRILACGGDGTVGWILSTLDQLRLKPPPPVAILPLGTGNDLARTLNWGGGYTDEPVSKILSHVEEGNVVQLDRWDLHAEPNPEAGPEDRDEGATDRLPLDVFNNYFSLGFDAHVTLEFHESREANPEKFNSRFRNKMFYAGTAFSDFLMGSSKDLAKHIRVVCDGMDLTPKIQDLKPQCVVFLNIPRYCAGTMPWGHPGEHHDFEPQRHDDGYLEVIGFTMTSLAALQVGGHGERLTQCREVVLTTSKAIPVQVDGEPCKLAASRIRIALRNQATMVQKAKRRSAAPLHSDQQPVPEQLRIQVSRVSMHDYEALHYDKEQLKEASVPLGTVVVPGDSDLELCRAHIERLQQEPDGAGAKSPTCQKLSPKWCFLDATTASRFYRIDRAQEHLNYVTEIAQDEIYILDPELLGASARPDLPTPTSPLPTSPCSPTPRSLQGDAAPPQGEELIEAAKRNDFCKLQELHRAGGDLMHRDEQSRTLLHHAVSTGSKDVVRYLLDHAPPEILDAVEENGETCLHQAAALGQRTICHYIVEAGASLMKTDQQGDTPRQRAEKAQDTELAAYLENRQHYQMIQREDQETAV
DGKα, sequence (P23743 whole entry): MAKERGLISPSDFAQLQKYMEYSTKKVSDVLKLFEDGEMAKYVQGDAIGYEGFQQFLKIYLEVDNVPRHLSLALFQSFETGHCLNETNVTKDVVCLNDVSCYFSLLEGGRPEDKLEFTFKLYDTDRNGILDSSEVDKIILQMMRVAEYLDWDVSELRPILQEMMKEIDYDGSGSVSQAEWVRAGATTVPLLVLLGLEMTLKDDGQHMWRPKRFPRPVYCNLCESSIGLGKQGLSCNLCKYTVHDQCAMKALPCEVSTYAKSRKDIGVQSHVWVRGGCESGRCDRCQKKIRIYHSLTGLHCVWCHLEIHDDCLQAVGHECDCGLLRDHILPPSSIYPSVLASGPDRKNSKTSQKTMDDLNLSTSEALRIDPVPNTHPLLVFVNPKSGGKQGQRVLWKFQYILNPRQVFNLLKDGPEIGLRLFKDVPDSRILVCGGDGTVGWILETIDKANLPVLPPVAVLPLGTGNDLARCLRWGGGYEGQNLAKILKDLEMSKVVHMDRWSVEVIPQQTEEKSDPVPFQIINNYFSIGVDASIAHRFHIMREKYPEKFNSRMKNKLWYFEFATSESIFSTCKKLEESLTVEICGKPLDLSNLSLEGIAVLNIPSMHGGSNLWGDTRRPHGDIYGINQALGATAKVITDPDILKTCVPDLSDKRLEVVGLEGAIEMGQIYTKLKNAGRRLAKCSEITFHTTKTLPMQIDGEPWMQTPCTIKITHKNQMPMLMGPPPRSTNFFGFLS

Structure (SMILES)	IC50 (DGKζ) [nM]	IC50 (DGKα) [nM]
COc1cc(F)ccc1N(CC1CC1)[C@H]1CC[C@H](N(C)c2cc(=O)n(C)c3ccc(C#N)nc23)CC1 [Example 3Y, trans-8-[[4-(N-cyclopropylmethyl-N-4-fluoro-2-methoxyphenyl-anilino)cyclohexyl]-methyl-amino]-5-methyl-6-oxo-5,6-dihydro-1,5-naphthyridine-2-carbonitrile]	≥ 1000	≥ 1000
COc1cc(F)ccc1N(CC1CC1)[C@H]1CC[C@@H](N(C)c2cc(=O)n(C)c3ccc(C#N)nc23)CC1 [Example 3Z, cis-8-[[4-(N-cyclopropylmethyl-N-4-fluoro-2-methoxyphenyl-anilino)cyclohexyl]-methyl-amino]-5-methyl-6-oxo-5,6-dihydro-1,5-naphthyridine-2-carbonitrile]	100 to 1000	100 to 1000
Cc1[nH]c2ccccc2c1C(=O)N[C@H]1CC[C@@H](N(CC2CC2)c2ccccc2)CC1 [Example 4A]	≥ 1000	≥ 1000
Cc1[nH]c2ccccc2c1C(=O)N[C@H]1CC[C@H](N(CC2CC2)c2ccccc2)CC1 [Example 4B]	≥ 1000	≥ 1000
Cc1[nH]c2ccccc2c1C(=O)N[C@H]1CC[C@H](N(CC2COC2)c2ccccc2)CC1 [Example 4C, trans-2-Methyl-N-(4-((oxetan-3-ylmethyl)(phenyl)amino)cyclohexyl)-1H-indole-3-carboxamide]	≥ 1000	≥ 1000
Cc1[nH]c2ccccc2c1C(=O)N[C@H]1CC[C@@H](N(CC2COC2)c2ccccc2)CC1 [Example 4D, cis-2-Methyl-N-(4-((oxetan-3-ylmethyl)(phenyl)amino)cyclohexyl)-1H-indole-3-carboxamide]	≥ 1000	≥ 1000
Cc1[nH]c2ccccc2c1C(=O)N[C@H]1CC[C@H](N(CC2(C)COC2)c2ccccc2)CC1 [Example 4E, trans-2-Methyl-N-(4-(((3-methyloxetan-3-yl)methyl)(phenyl)amino)cyclohexyl)-1H-indole-3-carboxamide]	≥ 1000	≥ 1000
O=C(N[C@H]1CC[C@@H](N(CC2CC2)c2ccccc2)CC1)c1c[nH]c2cccnc12 [Example 4F, cis-N-(4-((Cyclopropylmethyl)(phenyl)amino)cyclohexyl)-1H-pyrrolo[3,2-b]pyridine-3-carboxamide]	≥ 1000	≥ 1000
O=C(N[C@H]1CC[C@@H](N(CC2CC2)c2ccccc2)CC1)c1cnn2cccnc12 [Example 4G, cis-N-(4-((Cyclopropylmethyl)(phenyl)amino)cyclohexyl) pyrazolo[1,5-a]pyrimidine-3-carboxamide]	≥ 1000	≥ 1000
Cn1c(=O)c(C#N)c(N(C)[C@H]2CC[C@@H](N(c3ccc(F)cc3F)C3CC3)CC2)c2nc(Cl)ccc21 [Example 5, cis-6-chloro-4-((-4-(cyclopropyl(2,4-difluorophenyl)amino)cyclohexyl)(methyl)amino)-1-methyl-2-oxo-1,2-dihydro-1,5-naphthyridine-3-carbonitrile]	≥ 1000	100 to 1000
Cn1c(=O)c(C#N)c(N(C)[C@H]2CC[C@@H](N(CC3CC3)c3ccc(Cl)cc3)CC2)c2nc(Cl)ccc21 [Example 6, cis-6-chloro-4-((4-((4-chlorophenyl) (cyclopropylmethyl)amino)cyclohexyl)(methyl)amino)-1-methyl-2-oxo-1,2-dihydro-1,5-naphthyridine-3-carbonitrile]	≥ 1000	10 to 100
Cn1c(=O)cc(N(C)[C@H]2CC[C@@H](N(CC3CC3)c3ccc(Cl)cc3)CC2)c2nc(C#N)ccc21 [Example 7, cis-8-((4-((4-chlorophenyl)(cyclopropylmethyl)amino)cyclohexyl)(methyl)amino)-5-methyl-6-oxo-5,6-dihydro-1,5-naphthyridine-2-carbonitrile]	≥ 1000	10 to 100
Cn1c(=O)c(C#N)c(N(C)[C@H]2CC[C@@H](N(CC3CC3)c3ccc(Cl)cc3)CC2)c2ncccc21 [Example 8, cis-4-((4-((4-chlorophenyl)(cyclopropylmethyl)amino)cyclohexyl)(methyl)amino)-1-methyl-2-oxo-1,2-dihydro-1,5-naphthyridine-3-carbonitrile]	≥ 1000	10 to 100
COc1cc(F)ccc1N(CC1CC1)[C@H]1CC[C@@H](N(C)c2c(C#N)c(=O)n(C)c3cccnc23)CC1 [Example 9, cis-4-((4-((cyclopropylmethyl)(4-fluoro-2-methoxyphenyl)amino)cyclohexyl)(methyl)amino)-1-methyl-2-oxo-1,2-dihydro-1,5-naphthyridine-3-carbonitrile]	≥ 1000	≥ 1000
Cn1c(=O)c(C#N)c(N(C)[C@H]2CC[C@@H](N(c3ccc(F)cc3)C3CCC3)CC2)c2nc(Cl)ccc21 [Example 10, cis-6-chloro-4-((4-(cyclobutyl(4-fluorophenyl)amino)cyclohexyl)(methyl)amino)-1-methyl-2-oxo-1,2-dihydro-1,5-naphthyridine-3-carbonitrile]	100 to 1000	< 10
COc1cccc(N(CC2CC2)[C@H]2CC[C@@H](N(C)c3c(C#N)c(=O)n(C)c4ccc(Cl)nc34)CC2)c1 [Example 11, cis-6-chloro-4-((4-((cyclopropylmethyl)(3-methoxyphenyl)amino)cyclohexyl)(methyl)amino)-1-methyl-2-oxo-1,2-dihydro-1,5-naphthyridine-3-carbonitrile]	100 to 1000	10 to 100
COc1cccc(N(CC2CC2)[C@H]2CC[C@@H](N(C)c3cc(=O)n(C)c4ccc(C#N)nc34)CC2)c1 [Example 12, cis-8-((4-((cyclopropylmethyl)(3-methoxyphenyl)amino)cyclohexyl)(methyl)amino)-5-methyl-6-oxo-5,6-dihydro-1,5-naphthyridine-2-carbonitrile]	≥ 1000	100 to 1000
COc1cccc(N(CC2CC2)[C@H]2CC[C@H](N(C)c3c(C#N)c(=O)n(C)c4cccnc34)CC2)c1 [Example 13, trans-4-((4-((cyclopropylmethyl)(3-methoxyphenyl)amino)cyclohexyl)(methyl)amino)-1-methyl-2-oxo-1,2-dihydro-1,5-naphthyridine-3-carbonitrile]	≥ 1000	10 to 100
COc1cccc(N(CC2CC2)[C@H]2CC[C@H](N(C)c3cc(=O)n(C)c4ccc(C#N)nc34)CC2)c1 [Example 14, trans-8-((4-((cyclopropylmethyl)(3-methoxyphenyl)amino)cyclohexyl)(methyl)amino)-5-methyl-6-oxo-5,6-dihydro-1,5-naphthyridine-2-carbonitrile]	≥ 1000	≥ 1000
COc1cccc(N(CC2CC2)[C@H]2CC[C@@H](N(C)c3c(C#N)c(=O)n(C)c4cccnc34)CC2)c1 [Example 15, cis-4-((4-((cyclopropylmethyl)(3-methoxyphenyl)amino)cyclohexyl)(methyl)amino)-1-methyl-2-oxo-1,2-dihydro-1,5-naphthyridine-3-carbonitrile]	≥ 1000	100 to 1000
Cn1c(=O)c(C#N)c(N(C)[C@H]2CC[C@@H](N(c3ccc(F)cc3)C3CCC3)CC2)c2nc(C#N)ccc21 [Example 16]	100 to 1000	< 10
COc1cc(F)ccc1N(C1CCC1)[C@H]1CC[C@@H](N(C)c2c(C#N)c(=O)n(C)c3ccc(Cl)nc23)CC1 [Example 17, cis-6-chloro-4-((4-(cyclobutyl(4-fluoro-2-methoxyphenyl)amino)cyclohexyl)(methyl)amino)-1-methyl-2-oxo-1,2-dihydro-1,5-naphthyridine-3-carbonitrile]	≥ 1000	≥ 1000
COc1cc(F)ccc1N(C1CCC1)[C@H]1CC[C@@H](N(C)c2c(C#N)c(=O)n(C)c3ccc(C#N)nc23)CC1 [Example 18, cis-8-((4-(cyclobutyl(4-fluoro-2-methoxyphenyl)amino)cyclohexyl)(methyl)amino)-5-methyl-6-oxo-5,6-dihydro-1,5-naphthyridine-2,7-dicarbonitrile]	100 to 1000	100 to 1000
Cn1c(=O)c(C#N)c(N(C)[C@H]2CC[C@H](N(c3ccc(F)cc3)C3CCC3)CC2)c2nc(C#N)ccc21 [Example 19]	100 to 1000	100 to 1000
Cn1c(=O)c(C#N)c(N(C)[C@H]2CC[C@H](N(c3ccc(F)cc3)C3CCC3)CC2)c2nc(Cl)ccc21 [Example 20, trans-6-chloro-4-((4-(cyclobutyl(4-fluorophenyl)amino)cyclohexyl)(methyl)amino)-1-methyl-2-oxo-1,2-dihydro-1,5-naphthyridine-3-carbonitrile]	≥ 1000	10 to 100
COc1cccc(N(CC2CC2)[C@H]2CC[C@H](N(C)c3c(C#N)c(=O)n(C)c4ccc(Cl)nc34)CC2)c1 [Example 21, trans-6-chloro-4-((4-((cyclopropylmethyl)(3-methoxyphenyl)amino)cyclohexyl)(methyl)amino)-1-methyl-2-oxo-1,2-dihydro-1,5-naphthyridine-3-carbonitrile]	≥ 1000	10 to 100
